Biological target: T1, Prostaglandin D2 receptor (Rattus norvegicus, UniProt Q9R261)
T1 sequence (Q9R261 whole entry): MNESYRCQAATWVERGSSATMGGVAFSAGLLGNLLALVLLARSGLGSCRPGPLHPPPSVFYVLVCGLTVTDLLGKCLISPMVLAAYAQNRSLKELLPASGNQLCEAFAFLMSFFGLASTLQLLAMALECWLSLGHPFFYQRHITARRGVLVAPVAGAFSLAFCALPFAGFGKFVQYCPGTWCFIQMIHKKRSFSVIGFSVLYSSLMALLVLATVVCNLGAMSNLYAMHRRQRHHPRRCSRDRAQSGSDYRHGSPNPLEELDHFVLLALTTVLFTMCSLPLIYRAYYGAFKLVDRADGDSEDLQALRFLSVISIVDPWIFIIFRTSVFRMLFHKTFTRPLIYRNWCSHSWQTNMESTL

Q: For CCCCC[C@H](O)/C=C/C1[C@H](O)C[C@H](O)[C@@H]1C/C=C\CCCC(=O)O (stereo partly drawn) [(Z)-7-[(1R,3R,5S)-3,5-Dihydroxy-2-((E)-(S)-3-hydroxy-oct-1-enyl)-cyclopentyl]-hept-5-enoic acid], which Ki is on record?
A: The Ki was 693 nM.

Q: Which Ki does the source give for CCCCCC(O)C=CC1C(=O)CC(O)C1CC=CCCCC(=O)OC (stereo unspecified) [CAS_114676] here?
A: The Ki was 27 nM.

Q: For CCCCC[C@H](O)C=C[C@H]1C=CC(=O)[C@@H]1C/C=C\CCCC(=O)O [(Z)-7-[(1R,5S)-2-oxidanylidene-5-[(E,3S)-3-oxidanyloct-1-enyl]cyclopent-3-en-1-yl]hept-5-enoic acid], which Ki is on record?
A: The Ki was over 10000 nM.

Q: CCCCC[C@H](O)/C=C/[C@H]1[C@H](O)CC(=O)[C@@H]1C/C=C\CCCC(=O)O [DINOPROSTONE] was tested. Which Ki did it give?
A: The Ki was 2950 nM.

Q: CCCCC[C@H](O)/C=C/[C@@H]1[C@@H](CC(=O)CCCCC(=O)O)[C@@H](O)C[C@H]1O [6-KETO-PROSTAGLANDIN F1ALPHA] was tested. Which Ki did it give?
A: Its Ki is over 10000 nM.

Q: CCCCC[C@@H](O)/C=C/[C@H]1[C@H](O)CC(=O)[C@@H]1CCCCCCC(=O)O was tested. Which Ki did it give?
A: The Ki was 3760 nM.

Q: How did the Ki turn out when CCCCCC(O)C=CC1C(O)CC2OC(=CCCCC(=O)O)CC21 (stereo unspecified) [NSC_5282411] was run?
A: The Ki was 3540 nM.

Q: With CCCCCC(O)C=CC1=C(CC=CCCCC(=O)O)C(=O)CC1 (stereo unspecified) [NSC_5280881] as the compound, how does the Ki read?
A: Its Ki is over 10000 nM.

Q: For CCCCC[C@H](O)/C=C/[C@H]1OC(O)C[C@H](O)[C@@H]1C/C=C\CCCC(=O)O (stereo partly specified) [THROMBOXANE B2], which Ki is on record?
A: Its Ki is 4200 nM.

Q: With CCCCCC(O)C=CC1C(=O)CC(O)C1CCCCCCC(=O)O (stereo unspecified) [NSC_205449] as the compound, how does the Ki read?
A: Its Ki is 523 nM.

Q: With CCCCCC(O)CC=C1C(=O)C=CC1CC=CCCCC(=O)O (stereo unspecified) [CAS_41598-07-6] as the compound, how does the Ki read?
A: The Ki was 19 nM.

From BindingDB's records for PubMed 6292197 (Kyoto University, 1982)
